Test results published in patent US20180185801A1, “AMPHOTERIC ESTER SULFONATES” (Eastman Chemical Company, priority 2014, published 2018).
Like-named read-outs stand apart in the source and are kept apart here. Values belong to the compound of their own block, whether it stands above or below them.

What was measured:
[1] = buffer, pH 4.5
Description: The resulting mixture was placed in a 50° C. oven. Samples were taken periodically and analyzed for the amount of 3-(lauroyloxypropyldimethylammonio)-2-hydroxypropanesulfonate remaining by quantitative HPLC.
Samples were taken periodically and analyzed for the amount of 3-(cocoyloxypropyldimethylammonio)acetate remaining by quantitative HPLC.

[2] = Critical micelle concentration, fluorimetric determination with DPH dye; format: physicochemical
Description: The critical micelle concentration (CMC) was also determined for each compound. The CMC is the concentration of surfactant above which micelles spontaneously form. CMC is an important characteristic of a surfactant. At surfactant concentrations below the CMC, surface tension varies widely with surfactant concentration. At concentrations above the CMC, surface tension remains fairly constant. A lower CMC indicates less surfactant is needed to saturate interfaces and form micelles. Typical CMC values are less than 1 weight percent (10,000 ppm).
The fluorimetric determination of CMC described by Chattopadhyay and London (Analytical Biochemistry, Vol. 139, pp. 408-412 (1984)) was used to obtain the critical micelle concentrations found in Table 3 below. This method employs the fluorescent dye 1,6-diphenyl-1,3,5-hexatriene (DPH) in a solution of the surface-active agent. The analysis is based on differences in fluorescence upon incorporation of the dye into the interior of the micelles. As the solution exceeds CMC, a large increase in fluorescence intensity is observed.

[3] = Foaming properties, ASTM 1173-07 foam height test; format: physicochemical
Source text: The Standard Test Method for Foaming Properties of Surface-Active Agents (ASTM 1173-07) was used to determine the foaming properties of the ester sulfonates 1 described herein. This method generates foam under low-agitation conditions and is generally used for moderate- and high-foam surfactants. This test gathers data on initial foam height and foam decay.
Foam decay provides information on foam stability.
The apparatus for carrying out this test includes a jacketed column and a pipet. The jacketed column serves as a receiver, while the pipet delivers the surface-active solution. Solutions of each surface-active agent were prepared. The amphoteric ester sulphonate solution to be tested was added to the receiver (50 mL) and to the pipet (200 mL). The pipet was positioned above the receiver and opened. As the solution fell and made contact with the solution in the receiver, foam was generated. When the pipet was empty, the time was noted and an initial foam height was recorded. The foam height was recorded each minute for five minutes. Exact size specifications for the glassware can be found in ASTM 1173-07. The foam height results for each ester sulfonate 1 and representative standards are listed below in Tables 1 (0.1% concentration) and 2 (1% concentration).

Percent Amphoteric Remaining ([1]; 0 h): 100% | Percent Amphoteric Remaining ([1]; 336 h): 98% | Percent Amphoteric Remaining ([1]; 1008 h): 98% | Percent Amphoteric Remaining ([1]; 1344 h): 94% | Percent Amphoteric Remaining ([1]; 2016 h): 95%
SMILES: CCCCCCCCCCCC(=O)OCCC[N+](C)(C)CC(O)CS(=O)(=O)[O-] (centres unmarked) [Example 31, 3-(lauroyloxypropyldimethylammonio)-2-hydroxypropanesulfonate]

SMILES: CCCCCCCCCCCCOS(=O)(=O)O.N [ammonium lauryl sulfate]
CMC [2]: 1.38 mM | CMC (ppm) [2]: 392 ppm

SMILES: CCCCCCCCCCCCOS(=O)(=O)[O-].[Na+] [sodium lauryl sulfate]
CMC [2]: 8.27 mM | CMC (ppm) [2]: 2386 ppm

Foam height (cm) at time t (min) ([3]; 1 g/L (0.1 weight %), t = 0 min): 16.5 cm | Foam height (cm) at time t (min) ([3]; 1 g/L (0.1 weight %), t = 1 min): 16.0 cm | Foam height (cm) at time t (min) ([3]; 1 g/L (0.1 weight %), t = 2 min): 15.5 cm | Foam height (cm) at time t (min) ([3]; 1 g/L (0.1 weight %), t = 3 min): 15.5 cm | Foam height (cm) at time t (min) ([3]; 1 g/L (0.1 weight %), t = 4 min): 15.5 cm | Foam height (cm) at time t (min) ([3]; 1 g/L (0.1 weight %), t = 5 min): 15.0 cm | Foam height (cm) at time t (min) ([3]; 10 g/L (1.0 weight %), t = 0 min): 17.5 cm | Foam height (cm) at time t (min) ([3]; 10 g/L (1.0 weight %), t = 1 min): 17.0 cm | Foam height (cm) at time t (min) ([3]; 10 g/L (1.0 weight %), t = 2 min): 17.0 cm | Foam height (cm) at time t (min) ([3]; 10 g/L (1.0 weight %), t = 3 min): 16.5 cm | Foam height (cm) at time t (min) ([3]; 10 g/L (1.0 weight %), t = 4 min): 16.0 cm | Foam height (cm) at time t (min) ([3]; 10 g/L (1.0 weight %), t = 5 min): 15.5 cm | CMC [2]: 0.060 mM | CMC (ppm) [2]: 26.4 ppm
SMILES: CCCCCCCCCCCC(=O)OC(C)CC[N+](C)(C)CC(O)CS(=O)(=O)[O-] (centres unmarked) [Example 27, 3-(3-(lauroyloxy)-1-butyldimethylammonio-1-yl)-2-hydroxypropanesulfonate]
